Assay results taken from PubChem BioAssay AID2060348 (Molecular Pharmacology Branch, DTP, NCI, 2025).
Several values for one entry are separate records, joined by “and”; a condition that tells them apart may be missing. Identical values can stand only once.

System: 885724-159-R-J1-PDC spheroids viability
Experiment: Anticancer human tumor 885724-159-R-J1-PDC patient-derived pancreatic adenocarcinoma cell line growth inhibition [TAK]
Settings: spheroids with HUVEC and MSC; for viability, T/C: stronger effect = lower value
Text: Combinatorial screen of targeted agents with TAK-243 and ipatasertib in multi-cell type tumor spheroids
A high-throughput screen of multi-cell type tumor spheroids was designed to identify active combinations of targeted small molecules and TAK-243 or ipatasertib. Complex spheroids include a stromal component modeled by human endothelial cells (HUVEC) and fibroblasts modeled by human mesenchymal stem cells (MSCs). The concentration ranges selected for each drug and investigational agent were based upon clinically achievable concentrations if the clinical Cmax of the agent was known.
Compounds. The drugs and investigational agents: TAK-243 (785004), ipatasertib (767898), everolimus (733504), selumetinib (741078), bortezomib (756655), trametinib (758246), ixazomib (758254), vemurafenib (761431), dabrafenib (764134), sapanisertib (764658), alpelisib (765974), and copanlisib (816437), were obtained from the National Cancer Institute (NCI) Developmental Therapeutics Program Chemical Repository. The FDA-approved anticancer drug set is available from the NCI Developmental Therapeutics Program. […] The stock solutions were prepared in dimethyl sulfoxide (DMSO, Sigma-Aldrich, St. Louis, MO, cat. D2650) at 800-fold the tested concentration and stored at -70 degrees C prior to their use. All drugs and investigational agents were tested over a range starting from a high concentration at or near the clinical Cmax and decreasing in half-log increments. If the clinical Cmax for an agent had not been determined, the highest concentration tested was 10 microM.
NCI60 Cell Culture. NCI60 cell lines were obtained from the NCI Developmental Therapeutics Program Tumor Repository. For each lot of cells, the Repository performed Applied Biosystems AmpFLSTR Identifiler testing with PCR amplification to confirm consistency with the published Identifier STR profile for each cell line. Cells were kept in continuous culture for no more than 20 passages. The optimal seeding densities for each of the cell lines at each time point assessed were determined prior to performing the concentration response studies. Briefly, the NCI60 human tumor lines were grown as monolayers in RPMI 1640 medium supplemented with 10% FBS and 2 mmol/L L-glutamine.
An additional 2 lines were from the NCI60 cell line panel including melanomas, MALME-3M and SK-MEL-2. Pooled donor human umbilical vein endothelial cells (HUVEC, Lonza, cat. CC-2519) and human mesenchymal stem cells (hMSC, Lonza, cat. PT-2501) were purchased from Lonza (Walkersville, MD).
PDMR cell lines were grown in complete medium (DC medium): Dulbecco's modified Eagle's medium (DMEM)/F12 supplemented with 5% fetal bovine serum (FBS), 2 mM L-glutamine, 100 U/mL penicillin and 100 µg/ml streptomycin, 0.4 µg/ml hydrocortisone, 10 ng/ml epidermal growth factor (EGF) recombinant human protein, 24 µg/mL adenine, and 0.1 mg/mL primocin. During culture from frozen stock vials, PDMR cells were cultured in the same medium containing 10 µM Y-27632 (see Table 3). The PDCs were cultured in complete DMEM/F12 media without 10 microM Y-27632 dihydrochloride for at least two passages prior to the screen. The pooled donor HUVEC and hMSC were cultured in endothelial cell growth medium 2 (PromoCell, Heidelberg, Germany, cat. C-22011) and mesenchymal stem cell growth medium 2 (PromoCell, cat. C-28009), respectively. For all experiments, HUVEC and hMSC were used at passages </=5.
For the pre-screen, cell seeding densities were determined from a titration spanning the range from 5,000 to 313 cells per well. The mct-spheroids including 60% malignant cells, 25% HUVEC and 15% MSC dispensed as a mixture into U-bottom Ultra-Low Attachment 384-well plates (Corning, NY)
High-throughput Drug Combination Screening.
Prior to their inoculation into 384-well plates, malignant cells, HUVEC, and hMSC were removed from T flasks using TrypLE express (Thermo Fisher Scientific, cat. 12605036) and harvested by centrifugation for 5 min at 233 x g. […]

[1] = curve of first compound, second compound 0.3 µM
[2] = curve of first compound, second compound 0.949 µM
[3] = curve of first compound, second compound 3 µM
[4] = curve of first compound, second compound 9.49 µM
[5] = curve of first compound, second compound 30 µM
[6] = second compound 0.3 µM, first compound 0.000316 µM
[7] = second compound 0.3 µM, first compound 0.001 µM
[8] = second compound 0.3 µM, first compound 0.00316 µM
[9] = second compound 0.3 µM, first compound 0.01 µM
[10] = second compound 0.949 µM, first compound 0.000316 µM
[11] = second compound 0.949 µM, first compound 0.001 µM
[12] = second compound 0.949 µM, first compound 0.00316 µM
[13] = second compound 0.949 µM, first compound 0.01 µM
[14] = second compound 3 µM, first compound 0.000316 µM
[15] = second compound 3 µM, first compound 0.001 µM
[16] = second compound 3 µM, first compound 0.00316 µM
[17] = second compound 3 µM, first compound 0.01 µM
[18] = second compound 9.49 µM, first compound 0.000316 µM
[19] = second compound 9.49 µM, first compound 0.001 µM
[20] = second compound 9.49 µM, first compound 0.00316 µM
[21] = second compound 9.49 µM, first compound 0.01 µM
[22] = second compound 30 µM, first compound 0.000316 µM
[23] = second compound 30 µM, first compound 0.001 µM
[24] = second compound 30 µM, first compound 0.00316 µM
[25] = second compound 30 µM, first compound 0.01 µM
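Note: spheroids exposed to drugs for seven days.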
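Throughout, for viability, T/C: 100% = DMSO vehicle control viability.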

Compound | IC50 [1] [nM] | IC50 [2] [nM] | IC50 [3] [nM] | IC50 [4] [nM] | IC50 [5] [nM] | viability, T/C [6] [%] | viability, T/C [7] [%] | viability, T/C [8] [%] | viability, T/C [9] [%] | viability, T/C [10] [%] | viability, T/C [11] [%] | viability, T/C [12] [%] | viability, T/C [13] [%] | viability, T/C [14] [%] | viability, T/C [15] [%] | viability, T/C [16] [%] | viability, T/C [17] [%] | viability, T/C [18] [%] | viability, T/C [19] [%] | viability, T/C [20] [%] | further results
CC(C)CC(NC(=O)C(Cc1ccccc1)NC(=O)c1cnccn1)B(O)O (configuration not stated) + CC(C)NCC(C(=O)N1CCN(c2ncnc3c2C(C)CC3O)CC1)c1ccc(Cl)cc1 | 3.48 | 1.44 | 1.28 | 0.572 | < 0.0316 | 68.7 | 68.1 | 55 | 0.97 | 59 | 65.8 | 23.7 | 1.29 | 58.7 | 57.9 | 20.6 | 0.95 | 50.5 | 49 | 21.1 | viability, T/C (second compound 0.3 µM, first compound 31.6 pM): 77.5%; viability, T/C (second compound 0.3 µM, first compound 0.0001 µM): 68.6%; viability, T/C (second compound 0.949 µM, first compound 31.6 pM): 60.3%; viability, T/C (second compound 0.949 µM, first compound 0.0001 µM): 64.1%; viability, T/C (second compound 3 µM, first compound 31.6 pM): 58.1%; viability, T/C (second compound 3 µM, first compound 0.0001 µM): 58.9%; viability, T/C (second compound 9.49 µM, first compound 31.6 pM): 48.1%; viability, T/C (second compound 9.49 µM, first compound 0.0001 µM): 54.8%; viability, T/C [21]: 0.94%; viability, T/C (second compound 30 µM, first compound 31.6 pM): 31%; viability, T/C (second compound 30 µM, first compound 0.0001 µM): 38.5%; viability, T/C [22]: 33.7%; viability, T/C [23]: 34.5%; viability, T/C [24]: 14.8%; viability, T/C [25]: 0.56%
COC1CC2CCC(C)C(O)(O2)C(=O)C(=O)N2CCCCC2C(=O)OC(C(C)CC2CCC(OCCO)C(OC)C2)CC(=O)C(C)C=C(C)C(O)C(OC)C(=O)C(C)CC(C)C=CC=CC=C1C (configuration not stated) | – | – | – | – | – | – | – | – | – | – | – | – | – | – | – | – | – | – | – | – | viability, T/C (compound 0.000316 µM): 93.8% and 110%; viability, T/C (compound 0.001 µM): 91.7% and 92%; viability, T/C (compound 0.00316 µM): 79.7% and 77%; viability, T/C (compound 0.01 µM): 69.8% and 72.2%; viability, T/C (compound 0.0316 µM): 70.2% and 70.8%; viability, T/C (compound 0.1 µM): 67.6% and 62.2%; IC50 (curve of compound): > 100 nM
COC1CC2CCC(C)C(O)(O2)C(=O)C(=O)N2CCCCC2C(=O)OC(C(C)CC2CCC(OCCO)C(OC)C2)CC(=O)C(C)C=C(C)C(O)C(OC)C(=O)C(C)CC(C)C=CC=CC=C1C (configuration not stated) + CC(C)NCC(C(=O)N1CCN(c2ncnc3c2C(C)CC3O)CC1)c1ccc(Cl)cc1 | > 100 | > 100 | 28.3 | < 0.316 | < 0.316 | 68.2 | 62.3 | 62.3 | 58.5 | 63.1 | 58.5 | 56.4 | 59.3 | 60.5 | 60.4 | 53.3 | 50.7 | 48.2 | 49.6 | 47.3 | viability, T/C (second compound 0.3 µM, first compound 0.0316 µM): 57.4%; viability, T/C (second compound 0.3 µM, first compound 0.1 µM): 56.3%; viability, T/C (second compound 0.949 µM, first compound 0.0316 µM): 58.4%; viability, T/C (second compound 0.949 µM, first compound 0.1 µM): 61.2%; viability, T/C (second compound 3 µM, first compound 0.0316 µM): 52.5%; viability, T/C (second compound 3 µM, first compound 0.1 µM): 46.2%; viability, T/C [21]: 41.4%; viability, T/C (second compound 9.49 µM, first compound 0.0316 µM): 42.5%; viability, T/C (second compound 9.49 µM, first compound 0.1 µM): 39.4%; viability, T/C [22]: 31.3%; viability, T/C [23]: 27.5%; viability, T/C [24]: 27.5%; viability, T/C [25]: 23.8%; viability, T/C (second compound 30 µM, first compound 0.0316 µM): 29.3%; viability, T/C (second compound 30 µM, first compound 0.1 µM): 25.5%
